Source: paper PMC6152318 (Molecules : A Journal of Synthetic Chemistry and Natural …, 2017)

Legend:
[1] = target: Human serum albumin (HSA) IIA binding site (Homo sapiens, UniProt P02768); assay: Flavonoid fluorescence (excitation 450 nm) on HSA pre-saturated with warfarin (simultaneous binding / displacement)
Procedure: HSA was freshly dissolved in Dulbecco’s phosphate-buffered saline pH 7.4 (137 mM sodium chloride, 2.7 mM potassium chloride, 8.1 mM disodium hydrogen phosphate, 1.47 mM potassium dihydrogen phosphate) immediately before measurements. […]. In all experiments, the final co-solvent concentration was held below 5%. This was done to prevent conformational changes of HSA due to changes in dielectric constant of the solvent.
Steady-state fluorescence was recorded using a thermostated Safas Xenius fluorometer (Safas Monaco, Monaco) with an integrated stirrer. All studies were performed at 25 ± 1 °C using 10 nm excitation and emission slit widths. […] Higher concentrations of HSA and ligands were not used due to poor solubility of ligands and high influence of ligand absorption. Measurements were performed in duplicate.

[2] = Flavonoid fluorescence in buffer solution without HSA
[3] = target: T1, Human serum albumin (HSA) (Homo sapiens, UniProt P02768); assay: Binding constants by quenching of HSA tryptophan fluorescence
T1 construct: Fatty acid free HSA and warfarin sodium were purchased from Sigma-Aldrich; purchased Sigma-Aldrich (St. Louis, MO, USA)
T1 sequence (P02768 25-609): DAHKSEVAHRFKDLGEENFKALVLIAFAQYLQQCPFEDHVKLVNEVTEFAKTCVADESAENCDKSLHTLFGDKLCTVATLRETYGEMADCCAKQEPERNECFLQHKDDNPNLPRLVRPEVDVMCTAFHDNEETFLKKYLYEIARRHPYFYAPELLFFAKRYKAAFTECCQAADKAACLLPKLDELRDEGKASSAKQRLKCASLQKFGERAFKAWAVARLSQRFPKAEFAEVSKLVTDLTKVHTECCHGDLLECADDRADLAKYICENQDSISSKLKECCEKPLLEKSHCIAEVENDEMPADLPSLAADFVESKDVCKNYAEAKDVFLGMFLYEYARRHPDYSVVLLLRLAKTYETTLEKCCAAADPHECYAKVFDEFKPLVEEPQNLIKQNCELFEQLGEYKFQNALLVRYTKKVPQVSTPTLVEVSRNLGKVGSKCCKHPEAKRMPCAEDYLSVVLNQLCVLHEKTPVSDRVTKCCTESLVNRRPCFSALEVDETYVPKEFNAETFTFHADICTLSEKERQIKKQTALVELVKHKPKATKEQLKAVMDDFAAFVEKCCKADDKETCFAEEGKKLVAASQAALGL
Procedure: In all experiments, the final co-solvent concentration was held below 5%. This was done to prevent conformational changes of HSA due to changes in dielectric constant of the solvent.
Steady-state fluorescence was recorded using a thermostated Safas Xenius fluorometer (Safas Monaco, Monaco) with an integrated stirrer. All studies were performed at 25 ± 1 °C using 10 nm excitation and emission slit widths. […] Measurements were performed in duplicate.
A stock solution of a single ligand was gradually added via syringe to a 2 mL of a 6 μM HSA solution placed in a quartz cell. Measurements were conducted at the excitation wavelength of 295 nm and emission was recorded in the 310–400 nm range enabling calculations of corresponding binding constants. […] Binding constants were determined according to Dufour and Dangles. A Scatchard analysis was performed assuming n identical binding sites on HSA. Values for binding constant (K), molar fluorescence intensity of the complex (f), and the stoichiometric coefficient (n) were estimated by fitting the F vs. Lt curves against Equations (1) and (2) using a least-square regression program Scientist (MicroMath, Salt Lake City, UT, USA), where F is fluorescence intensity, [L] the free ligand concentration, [Lt] the total ligand concentration, and c the total albumin concentration. […] In all cases, the inner filter effect was taken into account by using absorption of free ligands at excitation and emission wavelengths (εex and εem, respectively) (Equation (3)), where Fcorr is the fluorescence corrected for the inner filter effect, F0 is the measured fluorescence, ε is the sum of εex and εem, l = 0.65 is the optical path and c is the flavonoid concentration. (1) Fcorr=fcnK[L]/1+K[L] (2) [Lt]=[L](1+ncK/1+K[L]) (3) F0=Fcorr×10^−εlc

[4] = HSA 0-92% saturated with warfarin

Chain of Human serum albumin (HSA) IIA binding site (P02768 25-609): as above

O=c1cc(-c2ccc(O)c(O)c2)oc2cc(O)cc(O)c12 [Luteolin]
Effect of warfarin on flavonoid Fmax (maximum fluorescence) [1, 4]: no noticeable change
Effect of warfarin on flavonoid cmax (concentration needed to achieve Fmax) [1, 4]: no noticeable change
Absolute fluorescence intensity ([1]; flavonoid 2,00 uM, 0% occupied HSA): 3,5310
Absolute fluorescence intensity ([1]; flavonoid 2,00 uM, 22% occupied HSA): 3,0516
Absolute fluorescence intensity ([1]; flavonoid 2,00 uM, 38% occupied HSA): 3,2663
Absolute fluorescence intensity ([1]; flavonoid 2,00 uM, 63% occupied HSA): 2,9688
Absolute fluorescence intensity ([1]; flavonoid 2,00 uM, 92% occupied HSA): 3,0838
Absolute fluorescence intensity ([1]; flavonoid 4,00 uM, 0% occupied HSA): 5,6541
Absolute fluorescence intensity ([1]; flavonoid 4,00 uM, 22% occupied HSA): 5,0287
Absolute fluorescence intensity ([1]; flavonoid 4,00 uM, 38% occupied HSA): 5,0961
Absolute fluorescence intensity ([1]; flavonoid 4,00 uM, 63% occupied HSA): 4,7527
Absolute fluorescence intensity ([1]; flavonoid 4,00 uM, 92% occupied HSA): 4,7445
Absolute fluorescence intensity ([1]; flavonoid 6,00 uM, 0% occupied HSA): 7,6599
Absolute fluorescence intensity ([1]; flavonoid 6,00 uM, 22% occupied HSA): 6,8528
Absolute fluorescence intensity ([1]; flavonoid 6,00 uM, 38% occupied HSA): 6,8106
Absolute fluorescence intensity ([1]; flavonoid 6,00 uM, 63% occupied HSA): 6,3873
Absolute fluorescence intensity ([1]; flavonoid 6,00 uM, 92% occupied HSA): 6,5159
Absolute fluorescence intensity ([1]; flavonoid 7,99 uM, 0% occupied HSA): 9,4059
Absolute fluorescence intensity ([1]; flavonoid 7,99 uM, 22% occupied HSA): 8,8217
Absolute fluorescence intensity ([1]; flavonoid 7,99 uM, 38% occupied HSA): 8,5002
Absolute fluorescence intensity ([1]; flavonoid 7,99 uM, 63% occupied HSA): 7,8443
Absolute fluorescence intensity ([1]; flavonoid 7,99 uM, 92% occupied HSA): 8,1746
Absolute fluorescence intensity ([1]; flavonoid 11,98 uM, 0% occupied HSA): 11,5397
Absolute fluorescence intensity ([1]; flavonoid 11,98 uM, 22% occupied HSA): 11,3861
Absolute fluorescence intensity ([1]; flavonoid 11,98 uM, 38% occupied HSA): 11,3711
Absolute fluorescence intensity ([1]; flavonoid 11,98 uM, 63% occupied HSA): 10,9648
Absolute fluorescence intensity ([1]; flavonoid 11,98 uM, 92% occupied HSA): 10,4774
Absolute fluorescence intensity ([1]; flavonoid 15,97 uM, 0% occupied HSA): 14,0865
Absolute fluorescence intensity ([1]; flavonoid 15,97 uM, 22% occupied HSA): 14,1260
Absolute fluorescence intensity ([1]; flavonoid 15,97 uM, 38% occupied HSA): 13,9507
Absolute fluorescence intensity ([1]; flavonoid 15,97 uM, 63% occupied HSA): 13,0693
Absolute fluorescence intensity ([1]; flavonoid 15,97 uM, 92% occupied HSA): 12,9194
Absolute fluorescence intensity ([1]; flavonoid 23,93 uM, 0% occupied HSA): 17,9442
Absolute fluorescence intensity ([1]; flavonoid 23,93 uM, 22% occupied HSA): 17,8085
Absolute fluorescence intensity ([1]; flavonoid 23,93 uM, 38% occupied HSA): 17,8530
Absolute fluorescence intensity ([1]; flavonoid 23,93 uM, 63% occupied HSA): 17,0150
Absolute fluorescence intensity ([1]; flavonoid 23,93 uM, 92% occupied HSA): 16,3518
Absolute fluorescence intensity ([1]; flavonoid 31,87 uM, 0% occupied HSA): 20,8667
Absolute fluorescence intensity ([1]; flavonoid 31,87 uM, 22% occupied HSA): 20,4964
Absolute fluorescence intensity ([1]; flavonoid 31,87 uM, 38% occupied HSA): 20,5131
Absolute fluorescence intensity ([1]; flavonoid 31,87 uM, 63% occupied HSA): 19,6701
Absolute fluorescence intensity ([1]; flavonoid 31,87 uM, 92% occupied HSA): 19,1278
Absolute fluorescence intensity ([1]; flavonoid 39,80 uM, 0% occupied HSA): 22,9301
Absolute fluorescence intensity ([1]; flavonoid 39,80 uM, 22% occupied HSA): 22,5924
Absolute fluorescence intensity ([1]; flavonoid 39,80 uM, 38% occupied HSA): 22,2082
Absolute fluorescence intensity ([1]; flavonoid 39,80 uM, 63% occupied HSA): 21,6524
Absolute fluorescence intensity ([1]; flavonoid 39,80 uM, 92% occupied HSA): 20,8642
Absolute fluorescence intensity ([1]; flavonoid 47,71 uM, 0% occupied HSA): 24,5206
Absolute fluorescence intensity ([1]; flavonoid 47,71 uM, 22% occupied HSA): 23,8063
Absolute fluorescence intensity ([1]; flavonoid 47,71 uM, 38% occupied HSA): 23,5737
Absolute fluorescence intensity ([1]; flavonoid 47,71 uM, 63% occupied HSA): 23,1678
Absolute fluorescence intensity ([1]; flavonoid 47,71 uM, 92% occupied HSA): 22,5713
Absolute fluorescence intensity ([1]; flavonoid 63,49 uM, 0% occupied HSA): 26,4505
Absolute fluorescence intensity ([1]; flavonoid 63,49 uM, 22% occupied HSA): 25,9034
Absolute fluorescence intensity ([1]; flavonoid 63,49 uM, 38% occupied HSA): 25,4318
Absolute fluorescence intensity ([1]; flavonoid 63,49 uM, 63% occupied HSA): 24,8572
Absolute fluorescence intensity ([1]; flavonoid 63,49 uM, 92% occupied HSA): 24,6423
Absolute fluorescence intensity ([1]; flavonoid 79,21 uM, 0% occupied HSA): 26,9488
Absolute fluorescence intensity ([1]; flavonoid 79,21 uM, 22% occupied HSA): 26,5002
Absolute fluorescence intensity ([1]; flavonoid 79,21 uM, 38% occupied HSA): 26,5136
Absolute fluorescence intensity ([1]; flavonoid 79,21 uM, 63% occupied HSA): 25,8191
Absolute fluorescence intensity ([1]; flavonoid 79,21 uM, 92% occupied HSA): 25,3909
Absolute fluorescence intensity ([1]; flavonoid 98,77 uM, 0% occupied HSA): 27,2939
Absolute fluorescence intensity ([1]; flavonoid 98,77 uM, 22% occupied HSA): 27,2804
Absolute fluorescence intensity ([1]; flavonoid 98,77 uM, 38% occupied HSA): 26,9116
Absolute fluorescence intensity ([1]; flavonoid 98,77 uM, 63% occupied HSA): 26,1311
Absolute fluorescence intensity ([1]; flavonoid 98,77 uM, 92% occupied HSA): 26,2198
Absolute fluorescence intensity ([1]; flavonoid 118,23 uM, 0% occupied HSA): 27,1078
Absolute fluorescence intensity ([1]; flavonoid 118,23 uM, 22% occupied HSA): 27,1338
Absolute fluorescence intensity ([1]; flavonoid 118,23 uM, 38% occupied HSA): 26,9198
Absolute fluorescence intensity ([1]; flavonoid 118,23 uM, 63% occupied HSA): 26,3501
Absolute fluorescence intensity ([1]; flavonoid 118,23 uM, 92% occupied HSA): 26,3929
Absolute fluorescence intensity ([1]; flavonoid 137,59 uM, 0% occupied HSA): 26,3217
Absolute fluorescence intensity ([1]; flavonoid 137,59 uM, 22% occupied HSA): 26,7053
Absolute fluorescence intensity ([1]; flavonoid 137,59 uM, 38% occupied HSA): 26,6416
Absolute fluorescence intensity ([1]; flavonoid 137,59 uM, 63% occupied HSA): 26,1054
Absolute fluorescence intensity ([1]; flavonoid 137,59 uM, 92% occupied HSA): 26,3918
Absolute fluorescence intensity ([1]; flavonoid 156,86 uM, 0% occupied HSA): 25,8093
Absolute fluorescence intensity ([1]; flavonoid 156,86 uM, 22% occupied HSA): 26,0626
Absolute fluorescence intensity ([1]; flavonoid 156,86 uM, 38% occupied HSA): 26,1509
Absolute fluorescence intensity ([1]; flavonoid 156,86 uM, 63% occupied HSA): 25,5239
Absolute fluorescence intensity ([1]; flavonoid 156,86 uM, 92% occupied HSA): 25,7773
Absolute fluorescence intensity ([2]; flavonoid 2,00 uM): 0,5984
Absolute fluorescence intensity ([2]; flavonoid 4,00 uM): 0,7341
Absolute fluorescence intensity ([2]; flavonoid 7,99 uM): 0,8094
Absolute fluorescence intensity ([2]; flavonoid 15,97 uM): 0,8481
Absolute fluorescence intensity ([2]; flavonoid 31,87 uM): 1,0538
Absolute fluorescence intensity ([2]; flavonoid 47,71 uM): 1,3400
Absolute fluorescence intensity ([2]; flavonoid 63,49 uM): 1,5045
Absolute fluorescence intensity ([2]; flavonoid 79,21 uM): 1,7483
Absolute fluorescence intensity ([2]; flavonoid 118,23 uM): 2,2774
Absolute fluorescence intensity ([2]; flavonoid 156,86 uM): 2,8851
Kd [3]: 8.2 µM
